According to article PMC11594246, “Nitrilase GiNIT from Gibberella intermedia Efficiently Degrades Nitriles Derived from Rapeseed Meal Glucosinolate” (International Journal of Molecular Sciences, 2024):

Experiments:
rBdNIT = target: T1, rBdNIT (Bradyrhizobium diazoefficiens, UniProt Q89PT3); test: specific activity, Bertholet ammonia assay; type: biochemical; conditions: 50 mM substrate, pH 7.5, 45 °C
T1 construct: gene blr3397; synthetic gene expressed in E. coli BL21(DE3), purified
T1 sequence (Q89PT3 1-321): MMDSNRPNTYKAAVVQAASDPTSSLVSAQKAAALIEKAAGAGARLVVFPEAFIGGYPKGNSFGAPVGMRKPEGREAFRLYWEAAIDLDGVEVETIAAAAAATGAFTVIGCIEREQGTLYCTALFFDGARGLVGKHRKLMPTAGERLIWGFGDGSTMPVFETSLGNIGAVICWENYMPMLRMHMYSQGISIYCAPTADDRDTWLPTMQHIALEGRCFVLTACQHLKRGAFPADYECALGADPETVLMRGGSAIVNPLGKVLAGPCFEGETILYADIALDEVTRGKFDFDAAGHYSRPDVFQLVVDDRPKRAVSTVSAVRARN

rRrNIT = target: T2, rRrNIT (Rhodococcus rhodochrous, UniProt Q02068); test: specific activity, Bertholet ammonia assay; type: biochemical; conditions: 50 mM substrate, pH 7.5, 45 °C
T2 construct: synthetic gene expressed in E. coli BL21(DE3), purified
T2 sequence (Q02068 1-383): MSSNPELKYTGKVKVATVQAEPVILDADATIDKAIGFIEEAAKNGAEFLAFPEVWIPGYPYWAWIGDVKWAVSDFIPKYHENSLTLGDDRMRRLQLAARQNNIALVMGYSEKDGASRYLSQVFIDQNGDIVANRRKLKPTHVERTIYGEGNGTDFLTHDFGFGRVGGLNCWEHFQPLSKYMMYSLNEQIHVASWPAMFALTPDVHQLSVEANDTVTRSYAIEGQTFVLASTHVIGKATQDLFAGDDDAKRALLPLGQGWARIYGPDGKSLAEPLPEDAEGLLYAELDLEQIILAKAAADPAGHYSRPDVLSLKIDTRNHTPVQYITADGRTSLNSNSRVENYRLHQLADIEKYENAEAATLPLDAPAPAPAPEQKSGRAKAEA

Row | SMILES | specific activity, Bertholet ammonia assay (rBdNIT) | specific activity, Bertholet ammonia assay (rRrNIT)
1 | C=CCC#N [3-butenenitrile] | rBdNIT from Bradyrhizobium diazoefficiens | rRrNIT from Rhodococcus rhodochrous
2 | C=CCCC#N [4-pentenenitrile] | rBdNIT from Bradyrhizobium diazoefficiens | rRrNIT from Rhodococcus rhodochrous
